Reference: US9694027B2, “Pyrazole derivative and use thereof for medical purposes” (KISSEI PHARMACEUTICAL CO. LTD., priority 2012, dated 2017)

What was measured:
[1] = system: patients with chronic constipation; test: Clinical trial in patients with chronic constipation (Example 5); type: in vivo, human
Experimental: After observation for 2 weeks, Compound 2 or a placebo was administered orally after eating to 79 patients with chronic constipation for 4 weeks. Patients who had steady symptoms for long periods were selected as constipation patients using diagnostic criteria of functional constipation based on Rome III as a reference.
2 mg TID group: administration of 2 mg of Compound 2, 3 times daily • (after breakfast, after lunch, after dinner)
20 mg QD group: administration of 20 mg of Compound 2, 1 time daily • (after breakfast)
20 mg BID group: administration of 20 mg of Compound 2, 2 times daily • (after breakfast, after dinner)
20 mg TID group: administration of 20 mg of Compound 2, 3 times daily • (after breakfast, after lunch, after dinner)
For the administration of Compound 2, tablets containing 1 or 10 mg in free drug equivalent of Compound 2 were used.
If the subjects complained that further administration of 2 tablets each time was difficult due to the increase in the frequency of spontaneous bowel movements or softened stool form causing problems in daily life, the dose was switched to 1 tablet each time in the week 1 visit or week 2 visit by the doctor and the administration was continued.

[2] = system: Loperamide-induced dog constipation model; test: Loperamide-induced dog constipation model (Example 1); type: in vivo; conditions: for Dry fecal weight within 24 hours after the administration / Wet fecal weight within 24 hours after the administration / Frequency of bowel movement within 24 hours after the administration: mean of 10 dogs; for Dry fecal weight within 24 hours after the administration: Control group 1.0, Normal group 47.1; for Wet fecal weight within 24 hours after the administration: Control group 2.8, Normal group 136.2; for Frequency of bowel movement within 24 hours after the administration: observation at 17, 21, 24 hours, Control group 0.2, Normal group 2.1
Experimental: Lubiprostone (TLC Pharma Chem) was weighed and was suspended in 0.5% methylcellulose at preparation concentrations of 0.05 and 0.35 mg/mL to prepare control substances.
Loperamide hydrochloride (Wako pure chemical) was weighed at 0.3, 0.5, 1.0, 2.0, 4.0 or 8.0 mg/kg for each animal and was filled into a gelatin capsule.
Loperamide hydrochloride which was filled into a gelatin capsule was orally administered to dogs (beagle, male, 13-14 months old, 10 dogs, Kitayama-labesu). The dosage was increased from 0.3 mg/kg, and was set at 2.0, 4.0 or 8.0 mg/kg based on the bowel movement condition of each dog.
Tests were performed as a full cross-over trial. More than 5-day washout period was provided between each test, and a recovery of stool form was identified, and then the next test was performed.
A gelatin capsule which was filled with loperamide hydrochloride was administered orally at around 9 a.m. on the first and second days in each test.
The stool form of feces was scored in seven categories based on Bristol Stool Form Scale. The collected feces were dried fully, and then the feces were weighed, and it was set as the dry fecal weight.

healthy adult males [3] = test: Multiple-dose study in healthy adult males (Example 4); type: in vivo, human; conditions: for Daily frequency of bowel movement after the administration, Mean: once daily Days 1 and 13, 3 times daily Days 3 to 12, daily mean during fifteen days, 8 subjects, Placebo 1.0; for Number of subject with gastrointestinal disorders: Abdominal pain / Number of subject with gastrointestinal disorders: Diarrhea: of 8 subjects; for Number of subject with gastrointestinal disorders: Abdominal pain: Placebo 0; for Number of subject with gastrointestinal disorders: Diarrhea: Placebo 3
Experimental: Compound 2 at a dose of 2, 5, 10 or 20 mg (free drug equivalent), a placebo, or miglitol at a dose of 50 mg was repetitively administered orally once daily just immediately before breakfast on administration Days 1 and 13, and 3 times daily just immediately before every meal on administration Days 3 to 12 to healthy adult males. For the administration of Compound 2, tablets containing 1, 5 or 10 mg in free drug equivalent were used. The test period was set between administration Day 1 and Day 15. Frequencies of bowel movements were checked during consultation by a doctor, and the adverse events (gastrointestinal disorders) were defined when an abnormal finding (diarrhea or loose stool) was seen based on the stool form and the finding. In this regard, the frequencies of bowel movements in Table 8 show the daily means during fifteen days (time/day).

healthy adult males [4] = test: Single-dose study in healthy adult males (Example 3); type: in vivo, human; conditions: for Number of subject with gastrointestinal disorders: Abdominal bloating / Number of subject with gastrointestinal disorders: Abdominal pain / Number of subject with gastrointestinal disorders: Diarrhea: of 6 subjects; for Frequency of bowel movement after the administration, Mean: 6 subjects, 48 hours, Placebo 1.7
Experimental: Compound 2 at a single dose of 2, 5, 10, 20, 40, 80 or 160 mg (free drug equivalent), or placebo was orally administered just immediately before breakfast to healthy adult males. For the administration of Compound 2, tablets containing 1, 5 or 10 mg in free drug equivalent were used. The test period was set between the administration and the discharge 48 hours after the administration. Frequencies of bowel movements were checked during consultation by a doctor, and the adverse events (gastrointestinal disorders) were defined when an abnormal finding (diarrhea or loose stool) was seen based on the stool form and the finding.

Increases of loose stool and diarrhea ([2]; all doses of this test): not observed
Number of subject with gastrointestinal disorders: Abdominal pain (healthy adult males [3]; multiple dose 2 mg): 0
Number of subject with gastrointestinal disorders: Diarrhea (healthy adult males [3]; multiple dose 2 mg): 6
Number of subject with gastrointestinal disorders: Abdominal pain (healthy adult males [3]; multiple dose 5 mg): 0
Number of subject with gastrointestinal disorders: Diarrhea (healthy adult males [3]; multiple dose 5 mg): 5
Number of subject with gastrointestinal disorders: Abdominal pain (healthy adult males [3]; multiple dose 10 mg): 0
Number of subject with gastrointestinal disorders: Diarrhea (healthy adult males [3]; multiple dose 10 mg): 5
Number of subject with gastrointestinal disorders: Abdominal pain (healthy adult males [3]; multiple dose 20 mg): 1
Number of subject with gastrointestinal disorders: Diarrhea (healthy adult males [3]; multiple dose 20 mg): 6
Number of subject with gastrointestinal disorders: Abdominal bloating (healthy adult males [4]; single dose 2 mg): 0
Number of subject with gastrointestinal disorders: Abdominal pain (healthy adult males [4]; single dose 2 mg): 0
Number of subject with gastrointestinal disorders: Diarrhea (healthy adult males [4]; single dose 2 mg): 1
Number of subject with gastrointestinal disorders: Abdominal bloating (healthy adult males [4]; single dose 5 mg): 0
Number of subject with gastrointestinal disorders: Abdominal pain (healthy adult males [4]; single dose 5 mg): 0
Number of subject with gastrointestinal disorders: Diarrhea (healthy adult males [4]; single dose 5 mg): 0
Number of subject with gastrointestinal disorders: Abdominal bloating (healthy adult males [4]; single dose 10 mg): 0
Number of subject with gastrointestinal disorders: Abdominal pain (healthy adult males [4]; single dose 10 mg): 0
Number of subject with gastrointestinal disorders: Diarrhea (healthy adult males [4]; single dose 10 mg): 2
Number of subject with gastrointestinal disorders: Abdominal bloating (healthy adult males [4]; single dose 20 mg): 0
Number of subject with gastrointestinal disorders: Abdominal pain (healthy adult males [4]; single dose 20 mg): 0
Number of subject with gastrointestinal disorders: Diarrhea (healthy adult males [4]; single dose 20 mg): 2
Number of subject with gastrointestinal disorders: Abdominal bloating (healthy adult males [4]; single dose 40 mg): 0
Number of subject with gastrointestinal disorders: Abdominal pain (healthy adult males [4]; single dose 40 mg): 0
Number of subject with gastrointestinal disorders: Diarrhea (healthy adult males [4]; single dose 40 mg): 2
Number of subject with gastrointestinal disorders: Abdominal bloating (healthy adult males [4]; single dose 80 mg): 2
Number of subject with gastrointestinal disorders: Abdominal pain (healthy adult males [4]; single dose 80 mg): 4
Number of subject with gastrointestinal disorders: Diarrhea (healthy adult males [4]; single dose 80 mg): 5
Number of subject with gastrointestinal disorders: Abdominal bloating (healthy adult males [4]; single dose 160 mg): 3
Number of subject with gastrointestinal disorders: Abdominal pain (healthy adult males [4]; single dose 160 mg): 3
Number of subject with gastrointestinal disorders: Diarrhea (healthy adult males [4]; single dose 160 mg): 6
Severity of gastrointestinal disorders (abdominal bloating, abdominal pain, diarrhea) (healthy adult males [4]; single dose 2-160 mg): mild in all the cases
Structure (SMILES): Cc1cc(OCCCNCC(C)(C)C(N)=O)ccc1Cc1c(O[C@@H]2O[C@H](CO)[C@@H](O)[C@H](O)[C@H]2O)n[nH]c1C(C)C.Cc1cc(OCCCNCC(C)(C)C(N)=O)ccc1Cc1c(O[C@@H]2O[C@H](CO)[C@@H](O)[C@H](O)[C@H]2O)n[nH]c1C(C)C.O=C(O)CCCCCCCCC(=O)O [Compound 2, bis[3-(3-{4-[3-(β-D-glucopyranosyloxy)-5-isopropyl-1H-pyrazol-4-ylmethyl]-3-methylphenoxy}propylamino)-2,2-dimethylpropionamide]monosebacate]
Subjects with hypoglycemia ([1]; all groups administered, 4 weeks): no subjects with hypoglycemia were reported
Frequency of spontaneous bowel movements per week ([1]; subject 1, 2 mg TID, administration week 1, observation period 1.1): 7.0 time/week
Bristol Stool Form Scale ([1]; subject 1, 2 mg TID, administration week 1, observation period 1.5): 3.7 mean/week
Frequency of spontaneous bowel movements per week ([1]; subject 1, 2 mg TID, administration week 2, observation period 1.1): 7.0 time/week
Bristol Stool Form Scale ([1]; subject 1, 2 mg TID, administration week 2, observation period 1.5): 3.7 mean/week
Frequency of spontaneous bowel movements per week ([1]; subject 1, 2 mg TID, administration week 3, observation period 1.1): 11.0 time/week
Bristol Stool Form Scale ([1]; subject 1, 2 mg TID, administration week 3, observation period 1.5): 4.1 mean/week
Frequency of spontaneous bowel movements per week ([1]; subject 1, 2 mg TID, administration week 4, observation period 1.1): 10.5 time/week
Bristol Stool Form Scale ([1]; subject 1, 2 mg TID, administration week 4, observation period 1.5): 3.8 mean/week
Frequency of spontaneous bowel movements per week ([1]; subject 2, 20 mg QD, administration week 1, observation period 1.8): 12.0 time/week
Bristol Stool Form Scale ([1]; subject 2, 20 mg QD, administration week 1, observation period 3.0): 4.6 mean/week
Frequency of spontaneous bowel movements per week ([1]; subject 2, 20 mg QD, administration week 2, observation period 1.8): 13.0 time/week
Bristol Stool Form Scale ([1]; subject 2, 20 mg QD, administration week 2, observation period 3.0): 4.0 mean/week
Frequency of spontaneous bowel movements per week ([1]; subject 2, 20 mg QD, administration week 3, observation period 1.8): 8.0 time/week
Bristol Stool Form Scale ([1]; subject 2, 20 mg QD, administration week 3, observation period 3.0): 3.4 mean/week
Bristol Stool Form Scale ([1]; subject 3, 20 mg BID switched to 10 mg 2 times daily after 1 week, administration week 2, observation period 2.0): 4.0 mean/week
Frequency of spontaneous bowel movements per week ([1]; subject 3, 20 mg BID switched to 10 mg 2 times daily after 1 week, administration week 2, observation period 2.2): 6.0 time/week
Bristol Stool Form Scale ([1]; subject 3, 20 mg BID switched to 10 mg 2 times daily after 1 week, administration week 3, observation period 2.0): 4.3 mean/week
Frequency of spontaneous bowel movements per week ([1]; subject 3, 20 mg BID switched to 10 mg 2 times daily after 1 week, administration week 3, observation period 2.2): 6.0 time/week
Bristol Stool Form Scale ([1]; subject 3, 20 mg BID switched to 10 mg 2 times daily after 1 week, administration week 4, observation period 2.0): 4.2 mean/week
Frequency of spontaneous bowel movements per week ([1]; subject 3, 20 mg BID switched to 10 mg 2 times daily after 1 week, administration week 4, observation period 2.2): 5.0 time/week
Bristol Stool Form Scale ([1]; subject 3, 20 mg BID, administration week 1, observation period 2.0): 5.9 mean/week
Frequency of spontaneous bowel movements per week ([1]; subject 3, 20 mg BID, administration week 1, observation period 2.2): 21.0 time/week
Dry fecal weight within 24 hours after the administration ([2]; 1 mg/kg oral): 10.4 g
Wet fecal weight within 24 hours after the administration ([2]; 1 mg/kg oral): 29.5 g
Frequency of bowel movement within 24 hours after the administration ([2]; 1 mg/kg oral): 0.5 time
Wet fecal weight, dry weight and frequency of bowel movements versus Control group ([2]; 3 mg/kg or more, significance level <5%): significantly higher than in Control group
Dry fecal weight within 24 hours after the administration ([2]; 3 mg/kg oral): 21.6 g
Wet fecal weight within 24 hours after the administration ([2]; 3 mg/kg oral): 60.9 g
Frequency of bowel movement within 24 hours after the administration ([2]; 3 mg/kg oral): 1.2 time
Dry fecal weight within 24 hours after the administration ([2]; 10 mg/kg oral): 27.3 g
Wet fecal weight within 24 hours after the administration ([2]; 10 mg/kg oral): 77.2 g
Frequency of bowel movement within 24 hours after the administration ([2]; 10 mg/kg oral): 1.5 time
Dose dependence of wet fecal weight, dry weight and frequency of bowel movements ([2]; within 24 hours after oral administration): dose-dependently increased
Daily frequency of bowel movement after the administration, Mean (healthy adult males [3]; 2 mg): 1.4 time/day
Daily frequency of bowel movement after the administration, Mean (healthy adult males [3]; 5 mg): 1.1 time/day
Daily frequency of bowel movement after the administration, Mean (healthy adult males [3]; 10 mg): 2.0 time/day
Daily frequency of bowel movement after the administration, Mean (healthy adult males [3]; 20 mg): 1.7 time/day
Stool form (Bristol Stool Form Scale) (healthy adult males [4]; 80 mg and 160 mg groups): type 6 or 7 for many subjects
Frequency of bowel movement after the administration, Mean (healthy adult males [4]; single oral dose 2 mg (free drug equivalent)): 1.7 time
Frequency of bowel movement after the administration, Mean (healthy adult males [4]; single oral dose 5 mg (free drug equivalent)): 1.0 time
Frequency of bowel movement after the administration, Mean (healthy adult males [4]; single oral dose 10 mg (free drug equivalent)): 2.2 time
Frequency of bowel movement after the administration, Mean (healthy adult males [4]; single oral dose 20 mg (free drug equivalent)): 2.2 time
Frequency of bowel movement after the administration, Mean (healthy adult males [4]; single oral dose 40 mg (free drug equivalent)): 1.8 time
Frequency of bowel movement after the administration, Mean (healthy adult males [4]; single oral dose 80 mg (free drug equivalent)): 4.8 time
Frequency of bowel movement after the administration, Mean (healthy adult males [4]; single oral dose 160 mg (free drug equivalent)): 5.2 time
